The conditions of series [1]: noted by Ernst et al.; cited from earlier work.
For series [2] the following is noted: cited from earlier work.
A short description of series [3]: Particle size analysis by laser diffraction (Malvern Mastersizer 2000). In kind it is physicochemical. The note with it: for d10: 10% of the total volume of particles is less than the indicated size; for d10 / d50 / d90: final method conditions, 0.1% (w/v) Span 85 in hexane; for d50: 50% of the total volume of particles is less than the indicated size; for d90: 90% of the total volume of particles is less than the indicated size. The source says:
Trans-clomiphene is characterized for size using an instrument adapted to measure equivalent spherical volume diameter, such as a Malvern Mastersizer 2000 laser diffraction particle size analyzer or equivalent instrument. After being characterized for size, the trans-clomiphene is then milled, if necessary, preferably using a pin mill under suitable conditions of mill rotation rate and feed rate, to bring the particle size value within the above mentioned limits according to the invention. The efficiency of milling is checked by sampling using a Malvern Mastersizer 2000 laser diffraction particle size analyzer and the final particle size is checked in a similar manner.
The values found from characterizing a large number of “unknown” particles can be plotted frequency vs. diameter. This gives a characteristic curve representing size distribution of the sample, i.e., cumulative percentage under size distribution curve. Values from this can be read off directly or plotted on log-probability paper to give an appropriate straight line. The mean equivalent spherical volume diameter is the 50% undersize value. The mean equivalent spherical volume diameter found is thus a statistical representation of a theoretical particle having the same property as the “unknown” particle. The following is a description by way of example.
Repeated particle size measurements of the sample dispersed in 0.1% (w/v) Span™ 85 in hexane were collected while recirculating over the course of approximately five minutes with a pump speed of 1000 rpm. Particle size (d10, d50, d90) was plotted versus the recirculation time. Values for both the d10 and d50 fell within a narrow range for the duration. The decrease in the d90 primarily occurred over the first 90 seconds with a gradual decrease thereafter.
Repeated particle size measurements of the sample were collected while recirculating for 90 seconds with increasing pump speeds to examine the effect of pump speed on particle size. […] A pump speed of 1500 rpm was selected to optimize both dispersion of agglomerates and suspension of the larger particles and to minimize attrition of the blades and needles.
One particle size measurement of each sample of trans-clomiphene citrate was collected using the final method conditions. Three of the lots shared a similar bimodal particle size distribution whereas one lot contained a third mode consisting of much larger particles. The remaining lot of was bimodal but reflected much larger particle sizes than the distributions of the earlier three lots with bimodal distributions.
Particle size data was acquired using a Malvern Instruments MS2000 equipped with a Hydro 2000 μP dispersion unit. Data was collected and analyzed using Mastersizer 2000 v. 5.60 software using volume based measurements. NIST-traceable glass beads were used as the reference standard.
Particle size of trans-clomiphene citrate using the final method conditions is reproduced below: […]

Series [4] is described as follows: Evaluation of dispersants for trans-clomiphene citrate. In kind it is physicochemical. The settings on record: 0.01% (w/v) Tween 20 (polysorbate 20) in water. Here is the method: 0.1% (w/v) Lecithin in Isopar G™, 0.1% (w/v) Span™ 85 (sorbitane trioleate) in hexane, and 0.01% (w/v) Tween® 20 (polysorbate 20) in water were evaluated as dispersants for trans-clomiphene citrate. Samples suspended easily in each of the two organic dispersants and settled out of suspension slowly. […] Samples dispersed in the Isopar G™-based and hexane-based dispersants were examined microscopically. […] 0.1% (w/v) Span™ 85 in hexane was selected for further analysis.

As to `CCN(CC)CCOc1ccc(/C(=C(/Cl)c2ccccc2)c2ccccc2)cc1` (single isomer, unassigned) [trans-isomer, trans-2-(p-(2-chloro-1,2-diphenylvinyl)phenoxy)triethylamine], the “estrogenic / antiestrogenic character” value in series [1] is on record as “antiestrogenic”.
Regarding `CCN(CC)CCOc1ccc(C(=C(Cl)c2ccccc2)c2ccccc2)cc1` [clomiphene], the “FSH, LH” value in series [2] (both young and old men after treatment with clomiphene) is recorded as “increases”. Besides, the “free and total testosterone” value in series [2] (men, young men showing significant increases) is on record as “increases”.
With `CCN(CC)CCOc1ccc(/C(=C(/Cl)c2ccccc2)c2ccccc2)cc1.O=C(O)CC(O)(CC(=O)O)C(=O)O` [compound 16204], in series [3], the d10 is 8.058 μm, the d50 was 106.743 μm and the d90 was 318.464 μm.
The like results for `CCN(CC)CCOc1ccc(/C(=C(/Cl)c2ccccc2)c2ccccc2)cc1.O=C(O)CC(O)(CC(=O)O)C(=O)O` [compound 24712] were, in that order, 4.038 μm, 13.902 μm and 218.573 μm.
The like results for `CCN(CC)CCOc1ccc(/C(=C(/Cl)c2ccccc2)c2ccccc2)cc1.O=C(O)CC(O)(CC(=O)O)C(=O)O` [compound 24867] were, in that order, 4.794 μm, 13.418 μm and 70.289 μm.
Take `CCN(CC)CCOc1ccc(/C(=C(/Cl)c2ccccc2)c2ccccc2)cc1.O=C(O)CC(O)(CC(=O)O)C(=O)O` [compound 31249]: in series [3], the d10 was found to be 4.850 μm, the d50 is recorded as 13.455 μm and the d90 was 76.891 μm.
In turn, `CCN(CC)CCOc1ccc(/C(=C(/Cl)c2ccccc2)c2ccccc2)cc1.O=C(O)CC(O)(CC(=O)O)C(=O)O` [compound 32305] displayed a d10 in series [3] of 3.373 μm. In series [3], the d50 is 9.664 μm. Also, in series [3], the d90 was determined as 44.995 μm. Moreover, the Vol under % in series [3] (size 0.010 μm), in series [3] (size 0.011 μm), in series [3] (size 0.013 μm), in series [3] (size 0.015 μm), in series [3] (size 0.017 μm) and in series [3] (size 0.020 μm) was 0.00% throughout. In addition, the Vol under % in series [3] (size 0.023 μm), in series [3] (size 0.026 μm), in series [3] (size 0.030 μm), in series [3] (size 0.035 μm), in series [3] (size 0.040 μm) and in series [3] (size 0.046 μm) was 0.00% throughout. Also, the Vol under % in series [3] (size 0.052 μm), in series [3] (size 0.060 μm), in series [3] (size 0.069 μm), in series [3] (size 0.079 μm), in series [3] (size 0.091 μm) and in series [3] (size 0.105 μm) was 0.00% throughout. For the same compound, the Vol under % in series [3] (size 0.120 μm), in series [3] (size 0.138 μm), in series [3] (size 0.158 μm), in series [3] (size 0.182 μm), in series [3] (size 0.209 μm) and in series [3] (size 0.240 μm) was 0.00% throughout. Further, the Vol under % in series [3] (size 0.275 μm), in series [3] (size 0.316 μm), in series [3] (size 0.363 μm), in series [3] (size 0.417 μm), in series [3] (size 0.479 μm) and in series [3] (size 0.550 μm) was 0.00% in each case. Further, the Vol under % came out at 0.00% in series [3] (size 0.631 μm); 0.00% in series [3] (size 0.724 μm); 0.00% in series [3] (size 0.832 μm); 0.02% in series [3] (size 0.965 μm); 0.10% in series [3] (size 1.096 μm); 0.28% in series [3] (size 1.259 μm). For the same compound, the Vol under % is recorded as 0.60% in series [3] (size 1.445 μm); 1.12% in series [3] (size 1.660 μm); 1.93% in series [3] (size 1.905 μm); 3.10% in series [3] (size 2.188 μm); 4.72% in series [3] (size 2.512 μm); 6.86% in series [3] (size 2.884 μm). In addition, the Vol under % in series [3] (size 3.311 μm) was 9.59%; in series [3] (size 3.802 μm), 12.94%; in series [3] (size 4.385 μm) it was 16.94%; in series [3] (size 5.012 μm), 21.58%; in series [3] (size 5.754 μm), 26.82%; in series [3] (size 6.607 μm) it was 32.58%. Further, the Vol under % worked out at 38.74% in series [3] (size 7.586 μm); 45.14% in series [3] (size 8.710 μm); 51.59% in series [3] (size 10.00 μm); 57.87% in series [3] (size 11.482 μm); 63.80% in series [3] (size 13.183 μm); 69.20% in series [3] (size 15.136 μm). In addition, the Vol under % in series [3] (size 17.378 μm) was 73.95%; in series [3] (size 19.953 μm), 77.98%; in series [3] (size 22.909 μm) it was 81.29%; in series [3] (size 26.303 μm), 83.92%; in series [3] (size 30.200 μm) it was 85.99%; in series [3] (size 34.674 μm) it was 87.62%. Besides, the Vol under % was determined as 88.95% in series [3] (size 39.811 μm); 90.13% in series [3] (size 45.709 μm); 91.28% in series [3] (size 52.481 μm); 92.50% in series [3] (size 60.256 μm); 93.84% in series [3] (size 69.183 μm); 95.28% in series [3] (size 79.433 μm). The Vol under % in series [3] (size 91.201 μm) stood at 96.72%; in series [3] (size 104.713 μm), 98.02%; in series [3] (size 120.226 μm), 99.04%; in series [3] (size 138.038 μm) it was 99.72%; in series [3] (size 158.489 μm), 99.97%; in series [3] (size 181.970 μm) it was 100.00%. The Vol under % in series [3] (size 208.930 μm), in series [3] (size 239.883 μm), in series [3] (size 275.423 μm), in series [3] (size 316.228 μm), in series [3] (size 363.078 μm) and in series [3] (size 416.869 μm) was 100.00% throughout. The Vol under % in series [3] (size 478.630 μm), in series [3] (size 549.541 μm), in series [3] (size 630.957 μm), in series [3] (size 724.438 μm), in series [3] (size 831.764 μm) and in series [3] (size 954.993 μm) was 100.00% in each case. In series [3] (size 1096.478 μm), this compound showed a Vol under % of 100.00%.
As to trans-clomiphene citrate, the “Dissolution of the sample suspended in aqueous dispersant” value in series [4] is on record as “Partial dissolution”.

The values are drawn from patent US20150202167A1, “Trans-Clomiphene Formulations and Uses Thereof” (REPROS THERAPEUTICS INC., priority 2012, published 2015).
